Among the data in ChEMBL document CHEMBL5338794, “Optimization of Orally Bioavailable Antileishmanial 2,4,5-Trisubstituted Benzamides” (J Med Chem, 2023) are EC50 values, retold here.

The subject of the experiment is Leishmania mexicana. Put plainly: Antileishmanial activity against renilla luciferase-expressing Leishmania mexicana promastigotes infected in mouse J774.A1 cells assessed as inhibition of intracellular amastigotes growth incubated for 96 hrs by Renilla luciferase assay. The experiment is classed as functional, organism-based. Conditions: J774.A1, 96 h.

One may read the EC50 as the concentration that produces a half-maximal response. Take `Cc1ccc(-c2nc3ccccc3s2)cc1NC(=O)c1cnc(Cl)cc1Cl`: the EC50 stood at 9800 nM.

As for `Cc1ccc(C(F)(F)F)cc1NC(=O)c1cc([N+](=O)[O-])c(F)cc1Cl`, the EC50 came out at 1700 nM.

For `N#Cc1ccc(NC(=O)c2cc([N+](=O)[O-])c(F)cc2Cl)cc1`, the EC50 was determined as 1000 nM.

Regarding `Cc1ccc(-c2nc3ccccc3s2)cc1NC(=O)c1ccc(Cl)c([N+](=O)[O-])c1`, the EC50 was 20000 nM.

For `Cc1ccc(-c2nc3ccccc3s2)cc1NC(=O)c1cnccc1F`, the EC50 was found to be 27000 nM.

For the compound `Cc1ccc(-c2nc3ccccc3s2)cc1NC(=O)c1cc([N+](=O)[O-])ccc1F`, the EC50 was 64000 nM.

Turning to `O=C(Nc1cccc(-c2nccs2)c1)c1cc([N+](=O)[O-])c(N2CCNCC2)cc1Cl`, the EC50 amounted to 1500 nM.

On to `Cc1ccc(-c2nc3ccccc3s2)cc1NC(=O)c1cnccc1Cl`, for which the EC50 was 8800 nM.

Take `CC(=O)Nc1cccc(NC(=O)c2cc([N+](=O)[O-])c(F)cc2Cl)c1`: the EC50 came out at 2900 nM.

Regarding `O=C(Nc1ccc(Cl)cc1)c1cc([N+](=O)[O-])c(F)cc1Cl`, the EC50 was found to be 1100 nM.

With `O=C(Nc1cnc(Cl)c(Cl)c1)c1cc([N+](=O)[O-])c(F)cc1Cl`, the EC50 is 500 nM.

For `Cc1ccc(-c2nc3ccccc3s2)cc1NC(=O)c1ccc(Br)cc1F`, the EC50 turned out to be 45000 nM.

`O=C(Nc1ccc(F)c(Cl)c1)c1cc([N+](=O)[O-])c(F)cc1Cl`: the EC50 was 1000 nM.

Regarding `Cc1ccc(NC(=O)c2cc([N+](=O)[O-])c(F)cc2Cl)cc1`, the EC50 stood at 1200 nM.

In the case of `Cc1ccc(-c2nc3ccccc3s2)cc1NC(=O)c1ccc(F)c(C(F)(F)F)c1`, the EC50 amounted to 21000 nM.

Consider `COc1cc(Cl)ncc1C(=O)Nc1cc(-c2nc3ccccc3s2)ccc1C`, for which the EC50 came out at 42000 nM.

Turning to `Cc1ccc(-c2nc3ccccc3s2)cc1NC(=O)c1ccc(Cl)nc1`, the EC50 is 8200 nM.

With `Cc1ccc(-c2nc3ccccc3s2)cc1NC(=O)c1cnccc1O`, the EC50 came out at 53000 nM.

On to `O=C(Nc1cccc(-c2ncco2)c1)c1ccc(N2CCNCC2)c([N+](=O)[O-])c1`, for which the concentration for a half-maximal effect (EC50) is 3100 nM.

Turning to `O=C(Nc1cccnc1)c1cc([N+](=O)[O-])c(F)cc1Cl`, the EC50 turned out to be 4600 nM.

For the compound `O=C(Nc1cccc(Cl)c1)c1ccc(N2CCNCC2)c([N+](=O)[O-])c1`, the EC50 is 1400 nM.

Take `Cc1ccc(C)c(NC(=O)c2cc([N+](=O)[O-])c(F)cc2Cl)c1`: the EC50 was found to be 2400 nM.

In the case of `Cc1ccc(-c2nc3ccccc3s2)cc1NC(=O)c1ccc(Br)cc1Cl`, the EC50 came out at 57000 nM.

In the case of `Cc1ccc(-c2nc3ccccc3s2)cc1NC(=O)c1cnccc1C#N`, the EC50 stood at 51000 nM.

`Cc1ccc(-c2nc3ccccc3s2)cc1NC(=O)c1ccc(F)nc1`: the EC50 came to 6400 nM.

As to `O=C(Nc1cccc(Cl)c1)c1ccc(F)c([N+](=O)[O-])c1`, the EC50 stood at 4000 nM.

For the compound `O=C(Nc1cccc(-c2nccs2)c1)c1ccc(N2CCNCC2)c([N+](=O)[O-])c1`, the EC50 is 1400 nM.

On to `O=C(Nc1cccc(-c2nccs2)c1)c1cc([N+](=O)[O-])c(F)cc1Cl`, for which the EC50 worked out at 1300 nM.

Turning to `Cc1ccc(-c2nc3ccccc3s2)cc1NC(=O)c1cc([N+](=O)[O-])c(F)cc1Cl`, the EC50 was determined as 1200 nM.

Regarding `O=C(Nc1cccc(-c2ccccn2)c1)c1cc([N+](=O)[O-])c(F)cc1Cl`, the EC50 was 1100 nM.

As to `O=C(Nc1ccc(F)cc1)c1cc([N+](=O)[O-])c(F)cc1Cl`, the EC50 stood at 1200 nM.

On to `N#Cc1ccc(NC(=O)c2ccc(N3CCNCC3)c([N+](=O)[O-])c2)cc1`, for which the EC50 came out at 5400 nM.

Turning to `O=C(Nc1ccc(Cl)c(Cl)c1)c1ccc(F)c([N+](=O)[O-])c1`, the EC50 is 1100 nM.

Regarding `Cc1ccc(Br)cc1NC(=O)c1cc([N+](=O)[O-])c(F)cc1Cl`, the EC50 was found to be 1400 nM.

Turning to `Cc1ccc(-c2nc3ccccc3s2)cc1NC(=O)c1cc([N+](=O)[O-])c(Cl)cc1F`, the EC50 turned out to be 2000 nM.

For `Cc1ccc(-c2nc3ccccc3s2)cc1NC(=O)c1ccc(F)c([N+](=O)[O-])c1`, the EC50 is 1200 nM.

Take `O=C(Nc1ccc(F)c(F)c1)c1cc([N+](=O)[O-])c(F)cc1Cl`: the concentration for a half-maximal effect (EC50) came to 1300 nM.
